Columns and labels:
[1] = Preparation of ink (evaluation of solubility): degree of solubility from saturated solution; type: physicochemical; details: for degree of solubility, 1,2,3,4-Tetrahydronaphthalene: solvent 1,2,3,4-tetrahydronaphthalene (Tetralin); for degree of solubility, 2-Propanol: solvent 2-propanol; for degree of solubility, ethyl benzoate: solvent ethyl benzoate; for degree of solubility, Toluene: solvent toluene
Protocol: HTL17 was added to each of toluene, chloroform, 2-propanol, 1,2,3,4-tetrahydronaphthalene (Tetralin®), ethyl benzoate (100 mL respectively), until undissolved compound was observed. The mixture was stirred for 10 minute with refluxing the solvent. Then, mixture was cooled to ambient temperature, and stirred for 1 hour, followed by still standing for 16 hours. The supernatant was filtrated by PTFE filter having thickness of 0.2 μm to obtain saturated solution. The saturated solution was dried under reduced pressure to calculate degree of solubility for each solvent.
Evaluation criteria in Table 4 was described below.

[2] = Pyrolysis behavior observed by TG-DTA; type: physicochemical; details: for difference of mass reduced between theoretical value and actual measured value: heating
Protocol: HTL17 synthesized in Example 1 was heated at a range of 25° C. to 450° C. at a temperature increasing rate of 5° C./min and the pyrolysis behavior thereof was observed by TG-DTA [reference: Al2O3, under nitrogen flow (200 mL/min), EXSTAR6000 (product name), product of Seiko Instruments Inc.].
The results are shown in FIG. 2, where the horizontal axis indicates temperature [° C.], the left-hand vertical axis indicates change in mass [mg] and the right-hand vertical axis indicates DTA signal [μV].

[3] = saturated solution at ambient temperature

| Structure (SMILES) | degree of solubility, 1,2,3,4-Tetrahydronaphthalene [1, 3] | degree of solubility, 2-Propanol [1, 3] | degree of solubility, ethyl benzoate [1, 3] | degree of solubility, Toluene [1, 3] | mass reduction ([2]; from ambient temperature to 250° C., 5° C./min, nitrogen flow) | difference of mass reduced between theoretical value and actual measured value [2] | degree of solubility, 1,2,3,4-Tetrahydronaphthalene ([1]; prophetic example) | degree of solubility, 2-Propanol ([1]; prophetic example) | degree of solubility, ethyl benzoate ([1]; prophetic example) | degree of solubility, Toluene ([1]; prophetic example) | difference of mass reduced between theoretical value and actual measured value ([2]; prophetic example) |
| --- | --- | --- | --- | --- | --- | --- | --- | --- | --- | --- | --- |
| CCCCCC(=O)OC1CCC(OC(=O)CCCCC)c2cc(N(c3ccc(-c4ccc(N(c5ccc6c(c5)C(OC(=O)CCCCC)CCC6OC(=O)CCCCC)c5ccc6ccccc6c5)cc4)cc3)c3ccc4ccccc4c3)ccc21 (stereo not drawn) [HTL17] | A (The degree of solubility is not less than 5% by mass) | A (The degree of solubility is not less than 5% by mass) | A (The degree of solubility is not less than 5% by mass) | A (The degree of solubility is not less than 5% by mass) | 40.0% | – | – | – | – | – | – |
| CCCCCC(=O)OC1CCC(OC(=O)CCCCC)c2cc(N(c3ccc(-c4ccc(N(c5ccc6c(c5)C(OC(=O)CCCCC)CCC6OC(=O)CCCCC)c5cccc6ccccc56)cc4)cc3)c3cccc4ccccc34)ccc21 (stereo not drawn) [HTL18] | A (The degree of solubility is not less than 5% by mass) | A (The degree of solubility is not less than 5% by mass) | A (The degree of solubility is not less than 5% by mass) | A (The degree of solubility is not less than 5% by mass) | – | −0.12% | – | – | – | – | – |
| CCCCCC(=O)OC1CCC(OC(=O)CCCCC)c2cc(N(c3ccc(C4(c5ccc(N(c6ccc7c(c6)C(OC(=O)CCCCC)CCC7OC(=O)CCCCC)c6ccc7ccccc7c6)cc5)c5ccccc5-c5ccccc54)cc3)c3ccc4ccccc4c3)ccc21 (stereo not drawn) [HTL33] | A (The degree of solubility is not less than 5% by mass) | B (The degree of solubility is not less than 1% by mass but less than 5% by mass.) | A (The degree of solubility is not less than 5% by mass) | A (The degree of solubility is not less than 5% by mass) | – | −0.16% | – | – | – | – | – |
| CCCCCC(=O)OC1C=C(c2ccc(N(c3ccc(C4=CC(OC(=O)CCCCC)CCC4OC(=O)CCCCC)cc3)c3ccc(-c4ccc(N(c5ccc(C6=CC(OC(=O)CCCCC)CCC6OC(=O)CCCCC)cc5)c5ccc(C6=CC(OC(=O)CCCCC)CCC6OC(=O)CCCCC)cc5)cc4)cc3)cc2)C(OC(=O)CCCCC)CC1 (stereo not drawn) [HTL34] | – | – | – | – | – | – | A (The degree of solubility is not less than 5% by mass) | B (The degree of solubility is not less than 1% by mass but less than 5% by mass.) | A (The degree of solubility is not less than 5% by mass) | A (The degree of solubility is not less than 5% by mass) | −0.18% |
| c1ccc2c(c1)-c1ccccc1C2(c1ccc(N(c2ccc3ccccc3c2)c2ccc3ccccc3c2)cc1)c1ccc(N(c2ccc3ccccc3c2)c2ccc3ccccc3c2)cc1 [NPAPF, 9,9-bis[4-(N,N-bis-naphthalene-2-yl-amino)phenyl]-9H-florene, reference compound] | B (The degree of solubility is not less than 1% by mass but less than 5% by mass.) | C (The degree of solubility is less than 1% by mass) | C (The degree of solubility is less than 1% by mass) | B (The degree of solubility is not less than 1% by mass but less than 5% by mass.) | – | – | – | – | – | – | – |
| c1ccc(-c2ccc(N(c3ccc(-c4ccccc4)cc3)c3ccc(-c4ccc(N(c5ccc(-c6ccccc6)cc5)c5ccc(-c6ccccc6)cc5)cc4)cc3)cc2)cc1 [TBPB, N,N,N′,N′-tetra-biphenyl-4-yl-benzidine, reference compound] | – | – | – | – | – | – | B (The degree of solubility is not less than 1% by mass but less than 5% by mass.) | C (The degree of solubility is less than 1% by mass) | B (The degree of solubility is not less than 1% by mass but less than 5% by mass.) | A (The degree of solubility is not less than 5% by mass) | – |
| c1ccc2cc(N(c3ccc(-c4ccc(N(c5ccc6ccccc6c5)c5cccc6ccccc56)cc4)cc3)c3cccc4ccccc34)ccc2c1 [α,β-TNB, 4,4′-bis[N-(1-naphthyl)-N-(2-naphthyl)amino]biphenyl, reference compound] | A (The degree of solubility is not less than 5% by mass) | C (The degree of solubility is less than 1% by mass) | B (The degree of solubility is not less than 1% by mass but less than 5% by mass.) | A (The degree of solubility is not less than 5% by mass) | – | – | – | – | – | – | – |
| c1ccc2cc(N(c3ccc(-c4ccc(N(c5ccc6ccccc6c5)c5cccc6ccccc56)cc4)cc3)c3cccc4ccccc34)ccc2c1 [α-TNB, 4,4′-tetrakis[N-(1-naphthyl)-N-(2-naphthyl)amino]biphenyl, reference compound] | – | – | – | – | – | – | B (The degree of solubility is not less than 1% by mass but less than 5% by mass.) | C (The degree of solubility is less than 1% by mass) | B (The degree of solubility is not less than 1% by mass but less than 5% by mass.) | A (The degree of solubility is not less than 5% by mass) | – |

Reference: US9293713B2, “Arylamine compound” (RICOH COMPANY, LTD., priority 2012, dated 2016)
